Measured values from patent US20080026486A1, “Assay Methods, Materials and Preparations” (priority 2004, published 2008).

How the values were obtained:
mouse anti-biotin IgG = test: Detection of proteins by SPR: biotinylated BSA on Dextran T70-COOH-PDEA (428018) surfaces; type: binding; settings: 10 μg/ml
Method: 4 flow cells having polymer treated surfaces were prepared. Flow cells (FC) 1, 2 & 3—were all activated by exposure for 7 min to […] (200 mM/50 mM). FC 3 only was then treated for 7 min with 50 μg/ml mouse anti-biotin IgG in 10 mM NaOAc buffer pH 4.5. FC 2 only was coupled to 50 μg/ml an irrelevant mouse monoclonal IgG in 10 mM NaOAc buffer pH 4.5 (7 minute exposure). FC 1, 2, 3—were capped by treatment for 5 min with ethanolamine (1 M, pH 8.5). FC 4 comprised untreated polymer.
Dextran T70-COOH-PDEA (428018) was deposited and mouse anti-biotin IgG was immobilised using the same procedure as in Example 7. The measurement of the immobilisation is shown in FIG. 12, which again is a graph of response (RU) against time (seconds).

[1] = test system: carbonic anhydrase II (CAII); test: Detection of small molecules by QCRS on CAII surface; type: binding; settings: for frequency shift on CAII surface: 12.5 μM
Method: The CAII surface was then used to capture 4-carboxybenzenesulfonamide (CBS […] in running PBSS buffer+0.25% MeOH).
The same CAII surface was used to detect 12.5 μM 4-carboxybenzenesulfonamide, and 12.5 μM 5-(dimethylamino)-1-naphthalenesulfonamide.

Row | Compound | binding to anti-biotin IgG surface (FC3) (mouse anti-biotin IgG; FC3) | binding to control surfaces (FC1, 2 and 4) (mouse anti-biotin IgG; capped polymer, irrelevant mouse IgG, unactivated polymer) | frequency shift on CAII surface [1] [Hz] | frequency shift on capture by CAII surface ([1]; 25 μm in running PBSS buffer + […] MeOH) [Hz]
1 | biotinylated BSA: biotinylated bovine serum albumin used as analyte | Specific binding occurs | minimal non-specific binding | – | –
2 | NS(=O)(=O)c1ccc(C(=O)O)cc1 [4-carboxybenzenesulfonamide] | – | – | 2.5 | 6
3 | CN(C)c1cccc2c(S(N)(=O)=O)cccc12 [5-(dimethylamino)-1-naphthalenesulfonamide] | – | – | 1.2 | –
